# Results from patent publication US20100204237A1, “Hydroxypyrimidinone derivatives having inhibitory activity against HIV integrase” (priority 2003, published 2010).
# Key:
# HIV (HTLV-IIIB strain) = experiment: inhibitory activities against HIV cell proliferation, MT-4 cells, MTT (Experimental Example 2); assay type: cell-based; details: Human immunodeficiency virus 1, IIIB, MT4, 96 h, concentration at which 50% of cytopathy caused by viruses was inhibited, 4 days, read-out: Experimental example 2 (EC50, ng/ml)
# Protocol: The inhibitory activities against HIV cell proliferation were determined by the assay method described below. • (1) HIV (HTLV-IIIB strain) persistence infection human T-cell strain Molt-4 clone 8 was cultured on RPMI-1640 medium supplemented with 10% fetal bovine serum, and the supernatant was measured for viral titer after filtration, and stored at −80° C. On the other hand, each anti-HIV active agent was diluted in the above culture medium to a predetermined concentration, and each well of a 96-well microplate was added with 50 μl of the resultant active agent solution. Then, 100 μl (3.5×10^4 cells) each of MT-4 cell suspension was poured into each well, followed by each 50 μl (60 pfu (plaque forming unit)) of the HIV-containing supernatant diluted with the above culture medium. • (2) After incubating for 4 days in a carbon dioxide incubator at 37° C., every well was added with 30 μl of 3-(4,5-dimethylthiazole-2-yl)-2,5-diphenyltetrazolium bromide (MTT) 5 mg/ml), PBS, and incubated for another 1 hour. At this time, since living cells reduce MTT to cause precipitation of formazane, 150 μl of cell supernatant was removed from each well, and instead 150 μl of lysis solution (isopropanol supplemented with 10% Triton X-100 and 0.4% (v/v) HCl) was added, to make formazane eluate by shaking with a plate mixer. […] The concentration of Compound at which 50% of cytopathy caused by viruses was inhibited was defined as EC50.
# HIV integrase = HIV integrase (Human immunodeficiency virus type 1 group M subtype B, UniProt P04585); experiment: inhibitory activities against integrase (Experimental Example 1); assay type: biochemical; details: integrase inhibition, OD405 nm plate assay; read-out: Experimental example 1 (IC50, ng/ml) (converted)
# Protocol: The inhibitory activities against integrase were determined by the assay described below.
# A substrate DNA, solution (2 pmol/μl) and a target DNA solution (5 pmol/μl) were prepared in the manner as described in Experimental example 1 of WO 2004/024693. Before using the DNA solutions, complementary chains were annealed by slowly cooling after boiling. Substrate DNA and target DNA had sequences as described in that Experimental example.
# Streptavidin, obtained from Vector Laboratories, was dissolved in 0.1 M carbonate buffer (composition: 90 mM Na2CO3, 10 mM NaHCO3) at concentration of 40 μg/ml. After coating each well of immunoplates (obtained from NUNC) with 50 μl of the above solution at 4° C. over night, each well was washed twice with PBS (composition: 13.7 mM NaCl, 0.27 mM KCl, 0.43 mM Na2HPO4, 0.14 mM KH2PO4) and blocked with 300 μl of 1% skim milk in PBS for 30 min. Additionally, each well was washed twice with PBS and added 50 μl of substrate DNA solution (2 pmol/μl). The immunoplates were kept at room temperature for 30 min while shaking. Then, each well was washed twice with PBS and once with H2O.
# Subsequently, in the each well prepared above were added 51 μl of the reaction solution prepared from 12 μl of the buffer (composition: 150 mM MOPS (pH 7.2), 75 mM MnCl2, 50 mM 2-mercaptoethanol, 25% glycerol, 500 μg/ml bovine serum albumin-fraction V), and 39 μl of the distilled water. Then 9 μl of an integrase solution (30 pmol) was added and mixed well. In the well of negative control (NC) was added 9 μl of the integrase dilution buffer (composition: 20 mM MOPS (pH7.2), 400 mM potassium glutamate, 1 mM EDTA, 0.1% NP-40, 20% glycerol, 1 mM DTT, 4M urea), and mixed well using a plate mixer.
# The plates were incubated at 30° C. for 60 minutes. The reaction solution was removed and washed three times with 250 μl of washing buffer (composition: 150 mM MOPS (pH7.2), 50 mM 2-mercaptoethanol, 25% glycerol, 500 μg/ml bovine serum albumin-fraction V).
# Then each well was added with 53 μl of reaction solution prepared from 12 μl of buffer (composition: 150 mM MOPS (pH7.2), 75 mM MgCl2, 50 mM 2-mercaptoethanol, 25% glycerol, 500 μg/ml bovine serum albumin-fraction V) and 41 μl of distilled water. Further, each well was added with 6 μl of DMSO solution of a compound to be tested, and the well of positive control (PC) was added with 6 μl of DMSO, and mixed well by a plate mixer. After incubating the plate for 30 minutes at 30° C., was added 1 μl of target DNA (5 pmol/μl), and mixed well by a plate mixer.
# After incubation for 10 minutes at 30° C., each plate was washed twice with PBS after removal of the reaction solution. […] The optical density at 405 nm (OD405 nm) of each well was measured and the inhibition rate (IC50) was determined by the following expression. […]
Structure (SMILES),EC50 (HIV (HTLV-IIIB strain)) [ng/mL],IC50 (HIV integrase) [nM],melting point [°C]
CCN1C(C)n2c(nc(-c3ncc(Cc4ccc(F)cc4)s3)c(O)c2=O)C1(C)C (centres unmarked) [Compound I-60],18,15.9,165 to 168
CC(=O)N1CCC[C@H]1c1nc(-c2nnc(Cc3ccc(F)cc3)o2)c(O)c(=O)n1C [Compound I-2],38,138,170 to 172
"Cc1nc(-c2nnc(Cc3ccc(F)cc3)o2)c(O)c(=O)[nH]1 [Comparative example 1, reference compound]",19000,92.6,
CN(C(=O)c1ccccn1)C(C)(C)c1nc(-c2ncc(Cc3ccc(F)cc3)s2)c(O)c(=O)[nH]1 [Compound I-45],5.6,12.1,245
